Data from ChEMBL document CHEMBL4312022, “Design, synthesis, and biological evaluation of ligustrazine - betulin amino-acid/dipeptide derivatives as anti-tumor agents” (Eur J Med Chem, 2020).
Active and inactive are the calls of the source. The rule behind the calls is not given here.

What was measured:
[1] = system: HepG2; assay: Induction of cell cycle arrest in human HepG2 cells assessed as accumulation at G1 phase at 8 uM after 72 hrs by PI-staining based flow cytometry (reference value: 66.9%); type: functional
[2] = system: HepG2; assay: Induction of apoptosis in human HepG2 cells assessed as late apoptotic cells at 4 uM after 24 hrs by AnnexinV-FITC/PI-staining based flow cytometry (reference value: 4.5%); type: functional
[3] = Toxicity in zebrafish embryos assessed as spinal cord bending at 4 uM after 72 hrs; design: species or system Danio rerio; details: in vivo
[4] = system: HepG2; assay: Induction of cell cycle arrest in human HepG2 cells assessed as accumulation at G1 phase at 4 uM after 72 hrs by PI-staining based flow cytometry (reference value: 66.9%); type: functional
[5] = system: HepG2; assay: Antiproliferative activity against human HepG2 cells assessed as reduction in cell viability after 72 hrs by MTT assay; type: functional, cell-based; details: HepG2, 72 h
[6] = system: HepG2; assay: Induction of apoptosis in human HepG2 cells assessed as concentrated chromatin at 2 to 8 uM after 72 hrs by DAPI-staining based fluorescence microscopic analysis; type: functional, cell-based
[7] = system: HepG2; assay: Induction of cell cycle arrest in human HepG2 cells assessed as accumulation at G2 phase at 8 uM after 72 hrs by PI-staining based flow cytometry (reference value: 19.2%); type: functional
[8] = system: MDCK; assay: Cytotoxicity against MDCK cells assessed as reduction in cell viability after 72 hrs by MTT assay; type: cell-based; details: Canis lupus familiaris
[9] = system: HepG2; assay: Induction of apoptosis in human HepG2 cells assessed as early apoptotic cells at 4 uM after 24 hrs by AnnexinV-FITC/PI-staining based flow cytometry (reference value: 0.5%); type: functional
[10] = system: HT-29; assay: Antiproliferative activity against human HT-29 cells assessed as reduction in cell viability after 72 hrs by MTT assay; type: functional, cell-based; details: HT-29, 72 h
[11] = system: HepG2; assay: Induction of apoptosis in human HepG2 cells assessed as late apoptotic cells at 12 uM after 24 hrs by AnnexinV-FITC/PI-staining based flow cytometry (reference value: 4.5%); type: functional
[12] = Toxicity in zebrafish embryos assessed as malformation rate at 4 uM after 72 hrs (reference value: 0%); design: species or system Danio rerio; details: in vivo
[13] = system: HepG2; assay: Induction of apoptosis in human HepG2 cells assessed as reduction in number of normal cell morphology at 2 to 8 uM after 72 hrs by giemsa staining based inverted microscopic analysis; type: functional
[14] = Selectivity index, ratio of IC50 for MDCK cells to IC50 for human HepG2 cells
[15] = system: HepG2; assay: Induction of apoptosis in human HepG2 cells assessed as early apoptotic cells at 8 uM after 24 hrs by AnnexinV-FITC/PI-staining based flow cytometry (reference value: 0.5%); type: functional
[16] = system: HeLa; assay: Antiproliferative activity against human HeLa cells assessed as reduction in cell viability after 72 hrs by MTT assay; type: functional, cell-based
[17] = system: HepG2; assay: Induction of apoptosis in human HepG2 cells assessed as early apoptotic cells at 12 uM after 24 hrs by AnnexinV-FITC/PI-staining based flow cytometry (reference value: 0.5%); type: functional
[18] = system: HepG2; assay: Induction of morphological changes in human HepG2 cells assessed as cell fragmentation at 8 uM after 72 hrs by giemsa staining based inverted microscopic analysis; type: functional
[19] = Toxicity in zebrafish embryos assessed as effect on morphological changes at 4 uM after 72 hrs; design: species or system Danio rerio; details: in vivo
[20] = Toxicity in zebrafish embryos assessed as mortality rate at 4 uM after 72 hrs (reference value: 3.33 +/- 4.71%); design: species or system Danio rerio; details: in vivo
[21] = system: HepG2; assay: Induction of apoptosis in human HepG2 cells assessed as reduction in number of cells up to 8 uM after 72 hrs by DAPI-staining based fluorescence microscopic analysis; type: functional, cell-based
[22] = system: HepG2; assay: Induction of cell cycle arrest in human HepG2 cells assessed as accumulation at G2 phase at 2 uM after 72 hrs by PI-staining based flow cytometry (reference value: 19.2%); type: functional
[23] = system: HepG2; assay: Induction of cell cycle arrest in human HepG2 cells assessed as accumulation at S phase at 4 uM after 72 hrs by PI-staining based flow cytometry (reference value: 13.9%); type: functional
[24] = system: HepG2; assay: Induction of apoptosis in human HepG2 cells assessed as late apoptotic cells at 8 uM after 24 hrs by AnnexinV-FITC/PI-staining based flow cytometry (reference value: 4.5%); type: functional
[25] = system: HepG2; assay: Induction of cell cycle arrest in human HepG2 cells assessed as accumulation at S phase at 8 uM after 72 hrs by PI-staining based flow cytometry (reference value: 13.9%); type: functional
[26] = Toxicity in zebrafish embryos assessed as body length at 4 uM after 72 hrs (reference value: 4165.80 +/- 64.98 micrometer); design: species or system Danio rerio; details: in vivo
[27] = system: HepG2; assay: Induction of cell cycle arrest in human HepG2 cells assessed as accumulation at G2 phase at 4 uM after 72 hrs by PI-staining based flow cytometry (reference value: 19.2%); type: functional
[28] = system: HepG2; assay: Induction of cell cycle arrest in human HepG2 cells assessed as accumulation at G1 phase at 2 uM after 72 hrs by PI-staining based flow cytometry (reference value: 66.9%); type: functional
[29] = system: HepG2; assay: Induction of morphological changes in human HepG2 cells assessed as cell pyknosis at 8 uM after 72 hrs by giemsa staining based inverted microscopic analysis; type: functional
[30] = system: HepG2; assay: Induction of cell cycle arrest in human HepG2 cells assessed as accumulation at S phase at 2 uM after 72 hrs by PI-staining based flow cytometry (reference value: 13.9%); type: functional
[31] = system: BGC-823; assay: Antiproliferative activity against human BGC823 cells assessed as reduction in cell viability after 72 hrs by MTT assay; type: functional, cell-based; details: BGC-823, 72 h
[32] = system: HepG2; assay: Induction of apoptosis in human HepG2 cells assessed as increase in cell disruption up to 8 uM after 72 hrs by DAPI-staining based fluorescence microscopic analysis; type: functional
[33] = system: HepG2; assay: Induction of apoptosis in human HepG2 cells assessed as nuclear fragmentation at 2 to 8 uM after 72 hrs by DAPI-staining based fluorescence microscopic analysis; type: functional, cell-based

## C=C(C)[C@@H]1CC[C@]2(COC(=O)c3nc(C)c(C)nc3C)CC[C@]3(C)[C@H](CC[C@@H]4[C@@]5(C)CC[C@H](OC(=O)CN)C(C)(C)[C@@H]5CC[C@]43C)[C@@H]12
[1]
  Activity: 81.5%
[2]
  Activity: 15.4%
[3]
  Activity: Non-Toxic
[4]
  Activity: 79.6%
[5]
  IC50: 4.07 µM
[6]
  Activity: Active
[7]
  Activity: 13.6%
[8]
  IC50: 16.1 µM
[9]
  Activity: 5.5%
[10]
  IC50: 6.21 µM
[11]
  Activity: 21.4%
[12]
  Activity: 0%
[13]
  Activity: Active
[14]
  Ratio IC50: 3.91
[15]
  Activity: 14.2%
[16]
  IC50: 4.91 µM
[17]
  Activity: 35.4%
[18]
  Activity: Active
[19]
  Activity: Non-Toxic
[20]
  mortality at 72 h, 4 µM: 8.33%
[21]
  Activity: Active
[22]
  Activity: 15.8%
[23]
  Activity: 5.6%
[24]
  Activity: 19.2%
[25]
  Activity: 4.9%
[26]
  Activity: 4140.09 um
[27]
  Activity: 14.9%
[28]
  Activity: 76.8%
[29]
  Activity: Active
[30]
  Activity: 7.3%
[31]
  IC50: 4.24 µM
[32]
  Activity: Active
[33]
  Activity: Active
